Target: Beta-secretase 1 (Homo sapiens, UniProt P56817)
Test: Inhibition of BACE1

Chain of Beta-secretase 1 (P56817 whole entry): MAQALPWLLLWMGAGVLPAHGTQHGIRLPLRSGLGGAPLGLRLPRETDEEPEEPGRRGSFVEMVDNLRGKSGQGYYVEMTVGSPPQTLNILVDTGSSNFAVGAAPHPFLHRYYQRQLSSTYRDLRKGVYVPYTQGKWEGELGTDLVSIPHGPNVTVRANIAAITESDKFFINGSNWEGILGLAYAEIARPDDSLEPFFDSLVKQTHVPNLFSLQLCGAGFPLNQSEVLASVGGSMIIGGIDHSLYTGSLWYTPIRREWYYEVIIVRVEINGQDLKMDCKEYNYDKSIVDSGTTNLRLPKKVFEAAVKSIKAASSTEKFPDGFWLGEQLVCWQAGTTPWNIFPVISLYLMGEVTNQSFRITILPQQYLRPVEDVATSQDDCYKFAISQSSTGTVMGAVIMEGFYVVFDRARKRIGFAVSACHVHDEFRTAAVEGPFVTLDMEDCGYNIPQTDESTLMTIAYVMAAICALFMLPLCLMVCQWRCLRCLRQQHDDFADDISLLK

| Compound | Ki | IC50 |
| --- | --- | --- |
| CSCC[C@H](NC(=O)[C@@H](NC(=O)OC(C)(C)C)C(C)C)C(=O)N[C@@H](CC(C)C)[C@@H](O)C[C@@H](C)C(=O)N[C@H](C(=O)NCc1ccccc1)C(C)C | 5810 nM | – |
| CC(=O)c1ccccc1-c1cc(C(=O)N[C@@H](Cc2ccccc2)[C@H](O)CNC(C)C)cc(C(=O)N[C@H](C)c2ccccc2)c1 | – | 674 nM |
| CC(=O)c1ccccc1-c1cc(C(=O)N[C@@H](Cc2ccccc2)[C@H](O)CN2CCC2)cc(C(=O)N[C@H](C)c2ccccc2)c1 | – | > 10000 nM |
| CC(=O)c1ccccc1-c1cc(C(=O)N[C@@H](Cc2ccccc2)[C@H](O)CNCC2CC2)cc(C(=O)N[C@H](C)c2ccccc2)c1 | – | 418 nM |
| CC(=O)c1ccccc1-c1cc(C(=O)N[C@@H](Cc2ccccc2)[C@H](O)CN(C)Cc2ccccc2)cc(C(=O)N[C@H](C)c2ccccc2)c1 | – | > 10000 nM |
| C=CCNC[C@@H](O)[C@H](Cc1ccccc1)NC(=O)c1cc(C(=O)N[C@H](C)c2ccccc2)cc(-c2ccccc2C(C)=O)c1 | – | 223 nM |
| CC(=O)c1ccccc1-c1cc(C(=O)N[C@@H](Cc2ccccc2)[C@H](O)CNc2ccccc2)cc(C(=O)N[C@H](C)c2ccccc2)c1 | – | 110 nM |
| CC(=O)c1ccccc1-c1cc(C(=O)N[C@@H](Cc2ccccc2)[C@H](O)CNC2CC2)cc(C(=O)N[C@H](C)c2ccccc2)c1 | – | 317 nM |

Results, then the compound that gave them:

| Ki | IC50 | Compound |
| --- | --- | --- |
| – | 1400 nM | CC(=O)c1ccccc1-c1cc(C(=O)N[C@@H](Cc2ccccc2)[C@H](O)CNC2CCC2)cc(C(=O)N[C@H](C)c2ccccc2)c1 |
| – | 115 nM | CC(=O)c1ccccc1-c1cc(C(=O)N[C@@H](Cc2ccccc2)[C@H](O)CN[C@@H](C)c2ccccc2)cc(C(=O)N[C@H](C)c2ccccc2)c1 |
| – | 348 nM | CC(=O)c1ccccc1-c1cc(C(=O)N[C@@H](Cc2ccccc2)[C@H](O)CN[C@H](C)c2ccccc2)cc(C(=O)N[C@H](C)c2ccccc2)c1 |
| – | 115 nM | CC(=O)c1ccccc1-c1cc(C(=O)N[C@@H](Cc2ccccc2)[C@H](O)CNCc2ccccc2)cc(C(=O)N[C@H](C)c2ccccc2)c1 |
| – | 9900 nM | CC(=O)c1ccccc1-c1cc(C(=O)N[C@H](CO)Cc2ccccc2)cc(C(=O)N[C@H](C)c2ccccc2)c1 |
| 8 nM | – | CC(C)C[C@H](NC(=O)[C@H](CS(C)(=O)=O)NC(=O)[C@@H](NC(=O)OC(C)(C)C)C(C)C)[C@@H](O)C[C@@H](C)C(=O)N[C@H](C(=O)NCc1ccccc1)C(C)C |
| 0.3 nM | – | H-ELDLAVEF-OH |

Source: ChEMBL document CHEMBL1140597, “Evaluating scoring functions for docking and designing beta-secretase inhibitors” (Bioorg Med Chem Lett, 2007)
